From ChEMBL document CHEMBL4665887, “Identification, Structure-Activity Relationships of Marine-Derived Indolocarbazoles, and a Dual PKCθ/δ Inhibitor with Potent Antipancreatic Cancer Efficacy” (J Med Chem, 2020) come the findings set out here.

Bounds are passed on as bounds.

This assay deals with Protein kinase C theta type (Homo sapiens, UniProt Q04759). Kind of assay: Inhibition of PKCtheta (unknown origin) by HTRF assay. A general note: In TR-FRET formats the signal depends on donor and acceptor labels being close together.

What is called IC50 is the concentration at which inhibition is half-maximal. Higher therefore signals a need for much substance.

Chain of Protein kinase C theta type (Q04759 whole entry): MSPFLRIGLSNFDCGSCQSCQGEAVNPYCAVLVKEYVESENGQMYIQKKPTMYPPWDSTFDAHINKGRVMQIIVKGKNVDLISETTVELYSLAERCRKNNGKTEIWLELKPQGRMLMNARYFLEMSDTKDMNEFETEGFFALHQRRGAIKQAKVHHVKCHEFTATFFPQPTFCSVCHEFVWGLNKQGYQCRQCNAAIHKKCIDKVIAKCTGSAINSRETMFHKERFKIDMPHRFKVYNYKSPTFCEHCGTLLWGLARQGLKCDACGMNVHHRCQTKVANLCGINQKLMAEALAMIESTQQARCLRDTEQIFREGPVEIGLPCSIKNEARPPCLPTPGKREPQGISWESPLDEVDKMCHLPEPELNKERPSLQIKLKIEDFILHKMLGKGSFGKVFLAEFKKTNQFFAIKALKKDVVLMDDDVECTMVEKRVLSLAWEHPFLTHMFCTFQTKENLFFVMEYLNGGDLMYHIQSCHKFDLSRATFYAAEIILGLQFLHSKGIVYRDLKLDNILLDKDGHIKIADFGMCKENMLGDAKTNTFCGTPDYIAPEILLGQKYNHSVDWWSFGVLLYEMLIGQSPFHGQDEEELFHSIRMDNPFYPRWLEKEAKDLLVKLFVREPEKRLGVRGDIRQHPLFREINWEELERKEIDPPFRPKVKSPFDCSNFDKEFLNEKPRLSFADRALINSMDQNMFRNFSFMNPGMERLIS

Take `O=C1NC(O)c2c1c1c3ccccc3[nH]c1c1[nH]c3ccccc3c21` (centres undefined): the IC50 is > 2500 nM.

For `C[C@@H]1O[C@@H](n2c3ccccc3c3c4c(c5c6ccccc6[nH]c5c32)CNC4=O)[C@H](O)[C@H](O)[C@H]1O`, the IC50 was > 2500 nM.

Molecule `C[C@@H]1O[C@@H](n2c3ccccc3c3c4c(c5c6ccccc6[nH]c5c32)CNC4=O)C[C@@H](N)[C@H]1O` displayed an IC50 of 260 nM.

Take `CC(=O)N[C@@H]1C[C@H](n2c3ccccc3c3c4c(c5c6ccccc6[nH]c5c32)CNC4=O)O[C@@H](C)[C@@H]1O`: the IC50 is > 2500 nM.

`CC(=O)N[C@H]1C[C@H]2O[C@@](C)([C@@H]1O)n1c3ccccc3c3c4c(c5c6ccccc6n2c5c31)C(=O)NC4` returned an IC50 of 270 nM.

For `CC(=O)N[C@@H]1C[C@H](n2c3ccccc3c3c4c(c5c6cc(O)ccc6[nH]c5c32)CNC4=O)O[C@@H](C)[C@@H]1O`, the IC50 is > 2500 nM.

Regarding `C[C@H]1O[C@@H]2C[C@](O)([C@H]1O)n1c3ccccc3c3c4c(c5c6cc(O)ccc6n2c5c31)C(=O)NC4`, the IC50 is > 2500 nM.

Regarding `COC1NC(=O)c2c1c1c3ccccc3[nH]c1c1[nH]c3ccc(O)cc3c21` (centres undefined), the IC50 was > 2500 nM.

Take `O=C1NCc2c1c1c3ccccc3[nH]c1c1[nH]c3ccc(O)cc3c21`: the IC50 was > 2500 nM.

Regarding `CC(=O)N[C@@H]1C[C@H](n2c3ccc(O)cc3c3c4c(c5c6ccccc6[nH]c5c32)CNC4=O)O[C@@H](C)[C@@H]1O`, the IC50 was 280 nM.

`C[C@@H]1O[C@@H](n2c3ccc(O)cc3c3c4c(c5c6ccccc6[nH]c5c32)CNC4=O)C[C@@H](N)[C@H]1O`: the IC50 is > 2500 nM.

For `C[C@@H]1O[C@@H]2C[C@](O)([C@H]1O)n1c3ccccc3c3c4c(c5c6cc(O)ccc6n2c5c31)C(=O)NC4`, the IC50 was > 2500 nM.

Turning to `O=C1NCc2c1c1c3cc(O)ccc3[nH]c1c1[nH]c3ccccc3c21`, the IC50 was found to be 2110 nM.

On to `C[C@@H]1O[C@@H](n2c3ccccc3c3c4c(c5c6ccccc6[nH]c5c32)C(=O)NC4=O)[C@H](O)[C@H](O)[C@H]1O`, for which the IC50 was > 2500 nM.

In the case of `C[C@@H]1O[C@@H](n2c3ccccc3c3c4c(c5c6ccccc6[nH]c5c32)CNC4=O)C[C@@H](NC=O)[C@H]1O`, the IC50 was > 2500 nM.

In the case of `CNC(=O)C[C@H]1O[C@@](C)(C(=O)OC)n2c3ccccc3c3c4c(c5c6ccccc6n1c5c32)C(=O)NC4`, the IC50 is > 2500 nM.

`CO[C@@H]1[C@H](N(C)C=O)C[C@H]2O[C@]1(C)n1c3ccccc3c3c4c(c5c6ccccc6n2c5c31)C(=O)NC4` gave an IC50 of 250 nM.

Take `C[C@@H]1O[C@@H](n2c3ccc(O)cc3c3c4c(c5c6ccccc6[nH]c5c32)CNC4=O)[C@H](O)[C@H](O)[C@H]1O`: the IC50 is > 2500 nM.

Turning to `COC(=O)[C@@]1(OC)C[C@H]2O[C@]1(C)n1c3ccccc3c3c4c(c5c6ccccc6n2c5c31)C(=O)NC4`, half-maximal inhibition (IC50) was put at 520 nM.

In the case of `C[C@]12O[C@H](C[C@]1(O)C(=O)O)n1c3ccccc3c3c4c(c5c6ccccc6n2c5c31)C(=O)NC4=O`, the IC50 came to 1860 nM.

Turning to `CO[C@H]1NC(=O)c2c1c1c3ccccc3[nH]c1c1c2c2ccccc2n1[C@@H]1O[C@@H](C)[C@H](O)[C@@H](O)[C@H]1O`, the IC50 was > 2500 nM.

`CO[C@H]1NC(=O)c2c1c1c3ccccc3n3c1c1c2c2ccccc2n1[C@@H]1O[C@@]3(C)[C@H](OC)[C@@H](O)[C@H]1O` registered an IC50 of 890 nM.

Consider `CNn1c2ccccc2c2c3c(c4c5ccccc5[nH]c4c21)C(=O)NC3`, for which the IC50 is > 2500 nM.

In turn, `C[C@]12O[C@H](C[C@]1(O)C(=O)O)n1c3ccccc3c3c4c(c5c6ccccc6n2c5c31)CNC4=O` returned an IC50 of 5590 nM.

As for `CO[C@@H]1[C@H](NC=O)C[C@H]2O[C@]1(C)n1c3ccccc3c3c4c(c5c6ccccc6n2c5c31)C(=O)NC4`, the IC50 was > 2500 nM.

Consider `CO[C@@H]1C(=O)C[C@H]2O[C@]1(C)n1c3ccccc3c3c4c(c5c6ccccc6n2c5c31)C(=O)NC4`, for which the IC50 is > 2500 nM.

As to `C[C@@H]1O[C@@H](n2c3ccccc3c3c4c(c5c6ccccc6[nH]c5c32)C(=O)NC4=O)C[C@@H](NC=O)[C@H]1O`, the IC50 came out at 4760 nM.

In turn, `CO[C@@H]1[C@H](N)C[C@H]2O[C@]1(C)n1c3ccccc3c3c4c(c5c6ccccc6n2c5c31)C(=O)NC4=O` gave an IC50 of 36 nM.

`CO[C@H]1[C@@H](N2CC[C@@H](O)C2=O)C[C@@H]2O[C@@]1(C)n1c3ccccc3c3c4c(c5c6ccccc6n2c5c31)C(=O)NC4` yielded an IC50 of 170 nM.

For `C[C@@H]1O[C@@H](n2c3ccccc3c3c4c(c5c6ccccc6[nH]c5c32)C(=O)NC4=O)C[C@@H](N)[C@H]1O`, the IC50 turned out to be 1180 nM.

`CO[C@@H]1[C@@H](O)[C@@H](O)[C@H]2O[C@]1(C)n1c3ccccc3c3c4c(c5c6ccccc6n2c5c31)C(=O)NC4=O` returned an IC50 of 1420 nM.

Regarding `CO[C@@H]1[C@H](NC(C)=O)C[C@H]2O[C@]1(C)n1c3ccccc3c3c4c(c5c6ccccc6n2c5c31)C(=O)NC4`, the midpoint of inhibition, the IC50, lay at 38 nM.

For the molecule `COC(=O)[C@H]1C[C@H]2O[C@]1(C)n1c3ccccc3c3c4c(c5c6ccccc6n2c5c31)C(=O)NC4`, the IC50 was found to be 1680 nM.

With `CO[C@@H]1[C@H](NC(=O)C(=O)c2c[nH]c3ccccc23)C[C@H]2O[C@]1(C)n1c3ccccc3c3c4c(c5c6ccccc6n2c5c31)C(=O)NC4`, the IC50 stood at 1790 nM.

Take `CC(=O)N[C@@H]1C[C@H](n2c3ccccc3c3c4c(c5c6ccccc6[nH]c5c32)C(=O)NC4=O)O[C@@H](C)[C@@H]1O`: the IC50 is > 2500 nM.

Take `C[C@@H]1O[C@@H]2C[C@](O)([C@H]1O)n1c3ccccc3c3c4c(c5c6ccccc6n2c5c31)C(=O)NC4`: the IC50 stood at 1910 nM.

For the molecule `COc1cc(/C=C(/C(N)=O)n2c3ccccc3c3c4c(c5c6ccccc6[nH]c5c32)CNC4=O)ccc1O`, the 50% inhibitory concentration (IC50) was > 2500 nM.

As to `CO[C@@H]1/C(=N/O)C[C@H]2O[C@]1(C)n1c3ccccc3c3c4c(c5c6ccccc6n2c5c31)C(=O)NC4`, the IC50 was > 2500 nM.

`CO[C@@H]1[C@@H](O)[C@@H](O)[C@H]2O[C@]1(C)n1c3ccccc3c3c4c(c5c6ccccc6n2c5c31)C(=O)N[C@H]4O` came in with an IC50 of 2250 nM.

Consider `CO[C@@H]1[C@@H](O)[C@@H](O)[C@H]2O[C@]1(C)n1c3ccccc3c3c4c(c5c6ccccc6n2c5c31)C(=O)NC4`, for which inhibition was half-maximal at 1010 nM (IC50).

Take `CO[C@@H]1[C@H](O)C[C@H]2O[C@]1(C)n1c3ccccc3c3c4c(c5c6ccccc6n2c5c31)C(=O)NC4`: the IC50 came to 1300 nM.

Regarding `C[C@]12O[C@H](C[C@@H](O)[C@H]1O)n1c3ccccc3c3c4c(c5c6ccccc6n2c5c31)CNC4=O`, it took 600 nM to reach half-maximal inhibition (IC50).

In turn, `CO[C@@H]1[C@@H](O)C[C@H]2O[C@]1(C)n1c3ccccc3c3c4c(c5c6ccccc6n2c5c31)C(=O)NC4` gave an IC50 of 480 nM.

Regarding `CN[C@]1(C(=O)OC)C[C@H]2O[C@]1(C)n1c3ccccc3c3c4c(c5c6ccccc6n2c5c31)C(=O)NC4`, the IC50 was > 2500 nM.

Consider `CO[C@@H]1[C@H](N(C)C(C)=O)C[C@H]2O[C@]1(C)n1c3ccccc3c3c4c(c5c6ccccc6n2c5c31)C(=O)NC4`, for which the concentration for half-maximal inhibition (IC50) stood at 170 nM.

In the case of `CO[C@@H]1[C@@H](O)[C@@H](O)[C@H]2O[C@]1(C)n1c3ccccc3c3c4c(c5c6ccccc6n2c5c31)C(=O)N[C@@H]4O`, the IC50 was > 2500 nM.

Turning to `CO[C@@H]1C(C)(O)O[C@@H]2C[C@@]1(OC)n1c3ccccc3c3c4c(c5c6ccccc6n2c5c31)C(=O)NC4` (some centres undefined), the IC50 is > 2500 nM.

The molecule `CO[C@@H]1[C@H](N(C)C(C)=O)C[C@H]2O[C@]1(C)n1c3ccccc3c3c4c(c5c6ccccc6n2c5c31)C(=O)NC4=O` registered an IC50 of 50 nM.

With `CC(=O)N[C@H]1C[C@H](n2c3ccccc3c3c4c(c5c6ccccc6[nH]c5c32)CNC4=O)O[C@@H](C)[C@@H]1O`, half-maximal inhibition (IC50) required 1050 nM.

Turning to `COC(=O)c1cccc2c1NC1(C[C@H]3O[C@]1(C)n1c4ccccc4c4c5c(c6c7ccccc7n3c6c41)C(=O)NC5)C(=O)O2` (some centres undefined), the IC50 is > 2500 nM.

`C[C@@H]1O[C@@H](n2c3ccccc3c3c4c(c5c6ccccc6[nH]c5c32)[C@H](O)NC4=O)[C@H](O)[C@H](O)[C@H]1O`: the IC50 is > 2500 nM.

Consider `CN1Cc2c(c3c4ccccc4[nH]c3c3[nH]c4ccccc4c23)C1=O`, for which the IC50 was > 2500 nM.

On to `COC1=C(C)O[C@@H]2C[C@@]1(OC)n1c3ccccc3c3c4c(c5c6ccccc6n2c5c31)C(=O)NC4`, for which the midpoint of inhibition, the IC50, lay at 370 nM.

On to `C[C@H]1NC(=O)c2c1c1c3ccccc3[nH]c1c1[nH]c3ccccc3c21`, for which the IC50 was > 2500 nM.

`C[C@H]1O[C@@H]2C[C@](O)([C@@H]1O)n1c3ccccc3c3c4c(c5c6ccccc6n2c5c31)C(=O)NC4`: the IC50 was > 2500 nM.

Molecule `CO[C@H]1C(=O)C[C@H]2O[C@]1(C)n1c3ccccc3c3c4c(c5c6ccccc6n2c5c31)C(=O)NC4` gave an IC50 of 560 nM.

Turning to `CO[C@@H]1[C@H](N(C)C(N)=O)C[C@H]2O[C@]1(C)n1c3ccccc3c3c4c(c5c6ccccc6n2c5c31)C(=O)NC4`, the IC50 was 400 nM.

Molecule `CO[C@@H]1[C@H](O)[C@H](O)[C@H](C)O[C@H]1n1c2ccccc2c2c3c(c4c5ccccc5[nH]c4c21)CNC3=O` gave an IC50 of 9430 nM.

`C[C@@H]1O[C@@H](n2c3ccccc3c3c4c(c5c6ccccc6[nH]c5c32)CNC4=O)C[C@@H](N)[C@H]1OC(O)C1CO1` (some centres undefined) displayed an IC50 of 5750 nM.

Turning to `CO[C@@H]1[C@@H](O)[C@@H](O)[C@H]2O[C@]1(C)n1c3ccccc3c3c4c(c5c6ccccc6n2c5c31)C(=O)N[C@H]4OC`, the IC50 was > 2500 nM.

Take `COC1NC(=O)c2c1c1c3ccccc3[nH]c1c1[nH]c3ccccc3c21` (centres undefined): the IC50 was > 2500 nM.

As for `CN[C@@H]1C[C@H]2O[C@@](C)([C@@H]1OC)n1c3ccccc3c3c4c(c5c6ccccc6n2c5c31)C(=O)NC4=O` (stereo in doubt; 14), 17 nM corresponded to half-maximal inhibition (IC50).

Regarding `O=C1NC(=O)c2c1c1c3ccccc3[nH]c1c1[nH]c3ccccc3c21` [STAUROSPORINE AGLYCON], the IC50 was > 2500 nM.

On to `O=C1NCc2c1c1c3ccccc3[nH]c1c1[nH]c3ccccc3c21` [STAUROSPORINONE], for which the IC50 is > 2500 nM.
